Experimental data taken from ChEMBL document CHEMBL1201862, “PubChem BioAssay data set” (2004).
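In this assay, cells in 96-well plates receive the compound at five concentrations for 48 hours. Endpoints are linearly interpolated between the surrounding concentrations. At the GI50, growth is halved.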 Calls of active or inactive are those of the source. No stated cut-off is given here; in the data, active = GI50 up to about 1.1 µM and inactive = higher.

Experiments:
Test in all cases: NCI anticancer screen, dose series, 48 h
SK-MEL-2 = tested on: SK-MEL-2
UACC-62 = tested on: UACC-62
M14 = tested on: M14
OVCAR-3 = tested on: OVCAR-3
OVCAR-8 = tested on: OVCAR-8
HOP-62 = tested on: HOP-62
HT-29 = tested on: HT-29
K562 = tested on: K562
OVCAR-4 = tested on: OVCAR-4
786-0 = tested on: 786-0
SNB-75 = tested on: SNB-75
HCT-116 = tested on: HCT-116
OVCAR-5 = tested on: OVCAR-5
SK-OV-3 = tested on: SK-OV-3
LOX IMVI = tested on: LOX IMVI
UO-31 = tested on: UO-31
HL-60 = tested on: HL-60
SW-620 = tested on: SW-620

Row | Structure (SMILES) | GI50 (SK-MEL-2) | GI50 (UACC-62) | GI50 (M14) | GI50 (OVCAR-3) | GI50 (OVCAR-8) | GI50 (HOP-62) | GI50 (HT-29) | GI50 (K562) | GI50 (OVCAR-4) | GI50 (786-0) | GI50 (SNB-75) | GI50 (HCT-116) | GI50 (OVCAR-5) | GI50 (SK-OV-3) | GI50 (LOX IMVI) | GI50 (UO-31) | GI50 (HL-60) | GI50 (SW-620)
1 | CCCCCCCCCCCC1CC(=O)NCCCN(C)CCCCN(C)CCCN1C (stereo not given) [BUDMUNCHIAMINE A] | 1.75 µM (inactive) | 1.68 µM (inactive) | 1.8 µM (inactive) | 1.69 µM (inactive) | 1.89 µM (inactive) | 1.66 µM (inactive) | 1.56 µM (inactive) | 0.261 µM (active) | 1.74 µM (inactive) | 1.55 µM (inactive) | 1.59 µM (inactive) | 1.55 µM (inactive) | 1.85 µM (inactive) | 1.8 µM (inactive) | 1.48 µM (inactive) | 1.72 µM (inactive) | 0.395 µM (active) | 1.06 µM (active)
2 | C/C(=N\NC(=N)N)C(CN1CCCCC1)C(c1ccccc1)c1c(O)c2ccccc2oc1=O (stereo not given) | > 100 µM (inactive) | > 100 µM (inactive) | > 100 µM (inactive) | > 100 µM (inactive) | > 100 µM (inactive) | > 100 µM (inactive) | > 100 µM (inactive) | > 100 µM (inactive) | > 100 µM (inactive) | > 100 µM (inactive) | > 100 µM (inactive) | > 100 µM (inactive) | > 100 µM (inactive) | > 100 µM (inactive) | > 100 µM (inactive) | – | > 100 µM (inactive) | > 100 µM (inactive)
3 | Cc1cccc(NC(=O)Cc2nc3ccccc3s2)c1C | > 100 µM (inactive) | > 100 µM (inactive) | > 100 µM (inactive) | > 100 µM (inactive) | > 100 µM (inactive) | > 100 µM (inactive) | > 100 µM (inactive) | > 100 µM (inactive) | > 100 µM (inactive) | > 100 µM (inactive) | > 100 µM (inactive) | – | > 100 µM (inactive) | > 100 µM (inactive) | > 100 µM (inactive) | > 100 µM (inactive) | > 100 µM (inactive) | > 100 µM (inactive)
4 | COc1cc2c(cc1OC)NC(=O)NC(Cc1ccc3c(c1)OCO3)CC2 (stereo not given) | > 100 µM (inactive) | > 100 µM (inactive) | > 100 µM (inactive) | > 100 µM (inactive) | > 100 µM (inactive) | 51.5 µM (inactive) | – | > 100 µM (inactive) | > 100 µM (inactive) | > 100 µM (inactive) | 24 µM (inactive) | – | > 100 µM (inactive) | > 100 µM (inactive) | > 100 µM (inactive) | 76.9 µM (inactive) | > 100 µM (inactive) | > 100 µM (inactive)
5 | COc1ccc2nc3cc(Cl)ccc3c(Sc3ccc([N+](=O)[O-])cc3)c2c1 | > 10 µM (inactive) | > 10 µM (inactive) | > 10 µM (inactive) | > 10 µM (inactive) | > 10 µM (inactive) | > 10 µM (inactive) | > 100 µM (inactive) | > 10 µM (inactive) | > 10 µM (inactive) | > 10 µM (inactive) | 34.1 µM (inactive) | > 10 µM (inactive) | > 10 µM (inactive) | > 10 µM (inactive) | > 10 µM (inactive) | > 10 µM (inactive) | > 100 µM (inactive) | > 10 µM (inactive)
6 | COc1ccccc1NC(=O)C1=C(C)NC(C)=C(C(=O)Nc2ccccc2OC)C1c1cccc2ccccc12 | > 100 µM (inactive) | > 100 µM (inactive) | > 100 µM (inactive) | 64 µM (inactive) | > 100 µM (inactive) | – | 82.8 µM (inactive) | 13.3 µM (inactive) | 2.77 µM (inactive) | > 100 µM (inactive) | 14.3 µM (inactive) | 23.8 µM (inactive) | > 100 µM (inactive) | > 100 µM (inactive) | > 100 µM (inactive) | 13.7 µM (inactive) | 29.9 µM (inactive) | > 100 µM (inactive)
7 | CCOC(=O)/C(=C\c1ccc[nH]1)C(=O)c1ccccc1 | 89.9 µM (inactive) | 67.6 µM (inactive) | > 100 µM (inactive) | > 100 µM (inactive) | > 100 µM (inactive) | > 100 µM (inactive) | > 100 µM (inactive) | 35.2 µM (inactive) | > 100 µM (inactive) | > 100 µM (inactive) | 13.9 µM (inactive) | > 100 µM (inactive) | > 100 µM (inactive) | > 100 µM (inactive) | 91.2 µM (inactive) | > 100 µM (inactive) | 23.3 µM (inactive) | 52.7 µM (inactive)
8 | O=C(Cc1nc2ccccc2c(=O)n1-c1c(Cl)cccc1Cl)c1ccncc1 | 21.1 µM (inactive) | 22.7 µM (inactive) | 30.6 µM (inactive) | 21.3 µM (inactive) | 29.7 µM (inactive) | 21.3 µM (inactive) | 19.6 µM (inactive) | 26.7 µM (inactive) | 27.5 µM (inactive) | 24.6 µM (inactive) | 25.1 µM (inactive) | 17.8 µM (inactive) | – | 53.1 µM (inactive) | > 10 µM (inactive) | 13.3 µM (inactive) | 12 µM (inactive) | 36.6 µM (inactive)
9 | O=C(CCCCCCCCCCc1ccccc1)c1c(O)cccc1O | 15.8 µM (inactive) | 20.7 µM (inactive) | 20 µM (inactive) | 27 µM (inactive) | 20.7 µM (inactive) | 20.8 µM (inactive) | 33 µM (inactive) | 21.4 µM (inactive) | 25.3 µM (inactive) | 17.7 µM (inactive) | 29 µM (inactive) | 22.7 µM (inactive) | 21.2 µM (inactive) | 44.8 µM (inactive) | 27.2 µM (inactive) | 21.1 µM (inactive) | 25.1 µM (inactive) | 19.5 µM (inactive)
10 | COC(=O)c1c(CC(=O)OC(C)C)cc2n(c1=O)Cc1c-2nc2ccccc2c1OC | > 100 µM (inactive) | > 100 µM (inactive) | > 100 µM (inactive) | > 100 µM (inactive) | > 100 µM (inactive) | > 100 µM (inactive) | > 100 µM (inactive) | > 100 µM (inactive) | > 100 µM (inactive) | > 100 µM (inactive) | 27 µM (inactive) | > 100 µM (inactive) | > 100 µM (inactive) | > 100 µM (inactive) | > 100 µM (inactive) | > 100 µM (inactive) | > 100 µM (inactive) | > 100 µM (inactive)
11 | COc1ccc(C2[C@H]3C(=O)N(c4ccc(Cc5ccc(N6C(=O)[C@@H]7ON(c8ccccc8)C(c8ccc(OC)cc8)[C@@H]7C6=O)cc5)cc4)C(=O)[C@H]3ON2c2ccccc2)cc1 (stereo not given in full) | > 100 µM (inactive) | > 100 µM (inactive) | 23.1 µM (inactive) | > 100 µM (inactive) | > 100 µM (inactive) | > 100 µM (inactive) | > 100 µM (inactive) | > 100 µM (inactive) | > 100 µM (inactive) | > 100 µM (inactive) | > 100 µM (inactive) | > 100 µM (inactive) | > 100 µM (inactive) | > 100 µM (inactive) | > 100 µM (inactive) | > 100 µM (inactive) | > 100 µM (inactive) | > 100 µM (inactive)
12 | CCO/C(CCn1[nH]c(=O)c(Cl)c(Cl)c1=O)=N\NC(=O)C(=O)NN | > 100 µM (inactive) | > 100 µM (inactive) | > 100 µM (inactive) | > 100 µM (inactive) | > 100 µM (inactive) | > 100 µM (inactive) | > 100 µM (inactive) | > 100 µM (inactive) | > 100 µM (inactive) | > 100 µM (inactive) | > 100 µM (inactive) | – | > 100 µM (inactive) | > 100 µM (inactive) | > 100 µM (inactive) | > 100 µM (inactive) | > 100 µM (inactive) | > 100 µM (inactive)
13 | C[N+](C)(C)CC1CCC/C1=N\OC(=O)c1ccccc1 (stereo not given) | > 100 µM (inactive) | > 100 µM (inactive) | > 100 µM (inactive) | > 100 µM (inactive) | > 100 µM (inactive) | > 100 µM (inactive) | > 100 µM (inactive) | > 100 µM (inactive) | > 100 µM (inactive) | > 100 µM (inactive) | > 100 µM (inactive) | > 100 µM (inactive) | – | > 100 µM (inactive) | > 100 µM (inactive) | > 100 µM (inactive) | > 100 µM (inactive) | > 100 µM (inactive)
14 | O=C1c2c(n(Cc3ccccc3)c(=O)n2Cc2ccccc2)C(=O)N1Cc1ccccc1 | 46.3 µM (inactive) | 41.4 µM (inactive) | > 100 µM (inactive) | 49.2 µM (inactive) | > 100 µM (inactive) | > 100 µM (inactive) | 82.2 µM (inactive) | 58.1 µM (inactive) | 46.5 µM (inactive) | > 100 µM (inactive) | 64.7 µM (inactive) | 40.3 µM (inactive) | > 100 µM (inactive) | > 100 µM (inactive) | 32.4 µM (inactive) | 50.2 µM (inactive) | 0.782 µM (active) | 47.9 µM (inactive)
15 | O=S(=O)(c1ccccc1)C1(C2(S(=O)(=O)c3ccccc3)CCN=N2)CCN=N1 (stereo not given) | > 100 µM (inactive) | – | > 100 µM (inactive) | > 100 µM (inactive) | > 100 µM (inactive) | – | > 100 µM (inactive) | > 100 µM (inactive) | > 100 µM (inactive) | > 100 µM (inactive) | > 100 µM (inactive) | > 100 µM (inactive) | > 100 µM (inactive) | > 100 µM (inactive) | > 100 µM (inactive) | > 100 µM (inactive) | > 100 µM (inactive) | > 100 µM (inactive)
